Experiments:
[1] = Selectivity index, CC50 for MDBK cells to EC50 for Bovine viral diarrhea virus; format: toxicity, cell-based; settings: cattle, read-out: Ratio CC50/EC50
[2] = system: Bovine viral diarrhea virus 1; test: Antiviral activity against Bovine viral diarrhea virus infected in MDBK cells assessed as protection against virus-induced cytopathogenicity after 5 days; format: functional, organism-based; settings: Bovine viral diarrhea virus isolates and strains, 120 h
[3] = Cytotoxicity against MDBK cells; format: cell-based, Bos taurus; settings: cattle

Row | Structure (SMILES) | EC50 [2] | selectivity ratio [1] | CC50 [3]
1 | CCOC(=O)c1cc2c(ccn3c([N+](=O)[O-])c(C)nc23)[nH]1 | 64.8 µM | > 1.5 | > 100 µM
2 | CCOC(=O)c1cc2c(ccn3cc(Br)nc23)[nH]1 | 13.1 µM | > 7.6 | > 100 µM
3 | CCOC(=O)c1cc2c(ccn3cc(C(OCC)OCC)nc23)[nH]1 | 2.1 µM | 46.6 | 99.2 µM
4 | CCOC(=O)c1cc2c(ccn3cc(-c4ccccc4)nc23)[nH]1 | 3.7 µM | > 27.1 | > 100 µM
5 | CCOC(=O)c1cc2c(ccn3cc(-c4cccc(OC)c4)nc23)[nH]1 | 0.4 µM | 71 | 31.1 µM
6 | CCOC(=O)c1cc2c(ccn3cc(C(C)C)nc23)[nH]1 | 23.1 µM | > 4.3 | > 100 µM
7 | CCOC(=O)c1cc2c(ccn3cc(C)nc23)n1C | 5.6 µM | > 17.9 | > 100 µM
8 | COC(=O)c1cc2c(ccn3cc(C)nc23)n1C | 1.7 µM | > 60.6 | > 100 µM
9 | COC(=O)c1cc2c(ccn3cc(C)nc23)[nH]1 | 1.1 µM | > 87.2 | > 100 µM
10 | CCOC(=O)c1cc2c(ccn3cc(C=O)nc23)[nH]1 | 21.8 µM | > 4.6 | > 100 µM
11 | CCOC(=O)c1cc2c(ccn3c(Br)cnc23)[nH]1 | 14.1 µM | > 7.1 | > 100 µM

Further molecules by falling EC50 [2], results first:

Row | EC50 [2] | Structure (SMILES) | selectivity ratio [1] | CC50 [3]
12 | 78.9 µM | CCOC(=O)c1cc2c(ccn3c(Br)c(C)nc23)[nH]1 | > 1.3 | > 100 µM
13 | 53.8 µM | CCOC(=O)c1cc2c(ccn3cc(CO)nc23)[nH]1 | > 1.9 | > 100 µM
14 | 50.3 µM | CCOC(=O)c1cc2c(ccn3cc(C(C)(C)C)nc23)[nH]1 | > 2 | > 100 µM
15 | 47.6 µM | CCOC(=O)c1cc2c(ccn3cc(CCl)nc23)[nH]1 | > 2.1 | > 100 µM
16 | 46.5 µM | CCOC(=O)c1cc2c(ccn3cc(CN(C)C)nc23)[nH]1 | > 2.2 | > 100 µM
17 | 43.9 µM | Cc1cn2ccc3[nH]c(CO)cc3c2n1 | > 2.3 | > 100 µM
18 | 12.8 µM | CCOC(=O)c1cc2c(ccn3cc(C(F)(F)F)nc23)[nH]1 | > 7.8 | > 100 µM
19 | 5.1 µM | Cc1cn2ccc3[nH]c(C(=O)O)cc3c2n1 | > 19.6 | > 100 µM
20 | 5 µM | CCOC(=O)c1cc2c(ccn3ccnc23)[nH]1 | > 20 | > 100 µM
21 | 2.1 µM | CCOC(=O)c1cc2c(ccn3cc(C)nc23)[nH]1 | > 47.6 | > 100 µM
22 | 2.1 µM | CCCCOC(=O)c1cc2c(ccn3cc(C)nc23)[nH]1 | 41.8 | 89.8 µM
